Measured values as given in patent US20080038382A1 (priority 2004, published 2008).
Like-named read-outs stand apart in the source and are kept apart here.

Experiments:
[1] = tested on: SARS-CoV; conditions: background, cited sources; cited from earlier work
[2] = tested on: RSV S2; format: cell-based; conditions: 100 μg/ml
[3] = tested on: SARS CoV; format: cell-based; conditions: for mean number of plaques: 3 days incubation at 37° C., vero C1008 cells; for plaques as % of virus control: virus control = 100%

With `CCOC(=O)/C=C/[C@H](C[C@@H]1CCNC1=O)NC(=O)[C@@H](CC(=O)[C@@H](NC(=O)c1cc(C)on1)C(C)C)Cc1ccc(F)cc1` [AG7088] as the compound, how does the “activity against SARS virus (reported in literature/news)” value [1] read?
The value was “failed to inhibit virus”.

Which “activity against SARS virus (reported in literature/news)” value [1] does the source give for `Cc1cccc(C)c1OCC(=O)N[C@@H](Cc1ccccc1)[C@@H](O)C[C@H](Cc1ccccc1)NC(=O)[C@H](C(C)C)N1CCCNC1=O` [Lopinavir] here?
Its value is “partially active”.

Which “activity against SARS virus (reported in literature/news)” value [1] does the source give for `Cc1c(O)cccc1C(=O)N[C@@H](CSc1ccccc1)[C@H](O)CN1C[C@H]2CCCC[C@H]2C[C@H]1C(=O)NC(C)(C)C` [Nelfinavir] here?
The value was “partially active”.

With `NC(=O)c1ncn([C@@H]2O[C@H](CO)[C@@H](O)[C@H]2O)n1` [Ribavirin] as the compound, how does the “protection of the cells against RSV” value [2] read?
The value was “did not protect”.

What about the “mean number of plaques” value ([3]; Ribavirin 10 μg/ml) of the same compound?
Its value is “mean 114.75”.

What about the “plaques as % of virus control” value ([3]; Ribavirin 10 μg/ml) of the same compound?
Its value is “(97.5%)”.

And the “mean number of plaques” value ([3]; Ribavirin 100 μg/ml)?
The value was “mean 87.25”.

What about the “plaques as % of virus control” value ([3]; Ribavirin 100 μg/ml) of the same compound?
Its value is “(74.1%)”.

What about the “plaque size compared with controls” value ([3]; higher concentrations (Ribavirin 100 μg/ml, PYN5C 200 μg/ml)) of the same compound?
Its value is “smaller than for the controls”.

And the “activity against SARS virus (reported in literature/news)” value [1]?
The value was “appear to be efficacious”.

For `CC1(C)[C@@H](O[C@H]2O[C@H](C(=O)O)[C@@H](O)[C@H](O)[C@H]2O[C@@H]2O[C@H](C(=O)O)[C@@H](O)[C@H](O)[C@H]2O)CC[C@]2(C)[C@H]3C(=O)C=C4[C@@H]5C[C@@](C)(C(=O)O)CC[C@]5(C)CC[C@@]4(C)[C@]3(C)CC[C@@H]12` [glycyrrhizin], which “activity against SARS virus (reported in literature/news)” value [1] is on record?
The value was “appear to be efficacious”.
